Target: T1, Human FAAH (Homo sapiens, UniProt O00519)
T1 construct: made in house
T1 sequence (O00519 32-579 limits assumed): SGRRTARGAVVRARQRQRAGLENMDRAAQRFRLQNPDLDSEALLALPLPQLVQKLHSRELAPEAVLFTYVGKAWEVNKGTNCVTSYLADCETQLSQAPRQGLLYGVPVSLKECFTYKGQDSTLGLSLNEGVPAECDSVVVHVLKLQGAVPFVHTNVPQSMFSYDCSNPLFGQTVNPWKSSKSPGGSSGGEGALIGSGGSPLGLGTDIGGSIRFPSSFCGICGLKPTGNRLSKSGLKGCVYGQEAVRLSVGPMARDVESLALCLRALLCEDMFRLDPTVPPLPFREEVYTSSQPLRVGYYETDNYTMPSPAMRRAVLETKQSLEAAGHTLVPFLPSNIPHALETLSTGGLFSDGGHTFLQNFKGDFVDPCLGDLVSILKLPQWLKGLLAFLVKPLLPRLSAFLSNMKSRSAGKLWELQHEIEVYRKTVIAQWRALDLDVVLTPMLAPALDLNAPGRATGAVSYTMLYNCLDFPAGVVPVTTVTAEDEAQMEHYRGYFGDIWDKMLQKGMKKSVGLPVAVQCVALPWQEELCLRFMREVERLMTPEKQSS
Experiment: FAAH assay (glutamate dehydrogenase-coupled, oleamide substrate, absorbance at 340 nm)
Format: biochemical
Conditions: irreversible inhibition potency
Experimental: A FAAH assay may be carried out in 384-well clear polystyrene plates in a total volume of 50 μl per well. All percents are by volume. To each well was placed the reaction mixture (40 μl) containing 1-4 nM FAAH, 50 mM NaPi, pH 7.4, 3 mM α-ketoglutarate, 0.15 mM NADH, 7.5 U/ml glutamate dehydrogenase, 2 mM ADP, 1 mM EDTA, and 0.1% Triton X-100 (The concentration shown for each component was the final concentration in the assay). To this mixture was added 5 μl of a compound of Examples 1 to 20 at various concentrations prepared in 50% DMSO (or 5 μl 50% DMSO for controls). This was immediately followed by the addition of 5 μl oleamide (500 μM) dissolved in 75% EtOH/25% DMSO and the reaction mixture was mixed for 1.5 min. The final concentrations of DMSO and EtOH in the assay are each 7.5%. The reactions was then incubated at 30° C. and the absorbance at 340 nm was collected over a period of 90 min with readings taken in 30-second intervals using SpectraMax Plus^384 Microplate Spectrophotometer (Molecular Devices, Sunnyvale, Calif.). Human FAAH used in the assay was prepared as described in the patent application WO 2006/067613. The purity of the enzyme used was greater than 98% based on an analysis by SDS-polyacrylamide gel electrophoresis followed by Coomassie Blue staining.
Initial velocity data (V) is obtained from the slopes of the initial progressive curves. They are plotted as a function of substrate concentration and fit to the Michaelis-Menten equation (1) using Prism (GraphPad Software, Inc., San Diego, Calif.) software to obtain Km and Vmax values.
To obtain potencies of irreversible inhibitors, progressive curves consistent with first order inhibition kinetics (two-step irreversible inhibition mechanism) are fit to equation (2) by nonlinear least squares regressions to determine kobs values at each inhibitor concentration, where [P]t is the absorbance at time t, V0 is a constant related to the steady state rate of the uninhibited reaction, and kobs is the first order rate constant for enzyme inactivation. The inhibitor dissociation constant (Ki) and the first order rate
constant of enzyme inactivation at infinite inhibitor concentration (kinact) are then obtained by fitting the kobs vs. [I] curves to equation (3).

Row | Molecule | hFAAH KInact/K
1 | 4-(3-{[trans-4-(cyanomethyl)cyclohexyl]methoxy}benzylidene)-N-pyridazin-3-ylpiperidine-1-carboxamide [Example 96] | 1470 M⁻¹ s⁻¹
2 | 4-[3-(1-methyl-2-phenoxyethoxy)benzylidene]-N-pyridazin-3-ylpiperidine-1-carboxamide [Example 90] | 3971 M⁻¹ s⁻¹
3 | 4-{3-[2-(3-methoxyphenyl)ethoxy]benzylidene}-N-pyridazin-3-ylpiperidine-1-carboxamide [Example 85] | 7770 M⁻¹ s⁻¹
4 | 4-{3-[(2,4-dimethyl-1,3-thiazol-5-yl)methoxy]benzylidene}-N-pyridazin-3-ylpiperidine-1-carboxamide [Example 69] | 331 M⁻¹ s⁻¹
5 | 4-{3-[(2-methylpyridin-3-yl)methoxy]benzylidene}-N-pyridazin-3-ylpiperidine-1-carboxamide [Example 59] | 328 M⁻¹ s⁻¹
6 | CCOc1cccc(C=C2CCN(C(=O)Nc3cccnc3)CC2)c1 [Example 1, 4-(3-ethoxybenzylidene)-N-pyridin-3-ylpiperidine-1-carboxamide] | 2020 M⁻¹ s⁻¹
7 | COc1cccc(C=C2CCN(C(=O)Nc3cccnc3)CC2)c1 [Example 2, 4-(3-methoxybenzylidene)-N-pyridin-3-ylpiperidine-1-carboxamide] | 973 M⁻¹ s⁻¹
8 | O=C(Nc1cccnn1)N1CCC(=Cc2ccc3c(c2)OCO3)CC1 [Example 3, 4-(1,3-benzodioxol-5-ylmethylene)-N-pyridazin-3-ylpiperidine-1-carboxamide] | 2870 M⁻¹ s⁻¹
9 | O=C(Nc1cccnn1)N1CCC(=Cc2ccc3c(c2)OCCO3)CC1 [Example 4, 4-(2,3-dihydro-1,4-benzodioxin-6-ylmethylene)-N-pyridazin-3-ylpiperidine-1-carboxamide] | 2770 M⁻¹ s⁻¹
10 | CCC(CC)Oc1cccc(C=C2CCN(C(=O)Nc3cccnc3)CC2)c1 [Example 14, 4-[3-(1-ethylpropoxy)benzylidene]-N-pyridin-3-ylpiperidine-1-carboxamide] | 718 M⁻¹ s⁻¹
11 | CCC(CC)Oc1cccc(C=C2CCN(C(=O)Nc3cccnc3)CC2)c1 [Example 15, 4-[3-(1-ethylpropoxy)benzylidene]-N-pyridin-3-ylpiperidine-1-carboxamide] | 216 M⁻¹ s⁻¹
12 | O=C(Nc1cccnc1)N1CCC(=Cc2cccc(OC3CCCCCC3)c2)CC1 [Example 18, 4-[3-(cycloheptyloxy)benzylidene]-N-pyridin-3-ylpiperidine-1-carboxamide] | 1020 M⁻¹ s⁻¹
13 | CCC(C)Oc1cccc(C=C2CCN(C(=O)Nc3cccnn3)CC2)c1 (stereo not shown) [Example 21, 4-(3-sec-butoxybenzylidene)-N-pyridazin-3-ylpiperidine-1-carboxamide] | 973 M⁻¹ s⁻¹
14 | CCC(C)Oc1cccc(C=C2CCN(C(=O)Nc3cccnn3)CC2)c1 (stereo not shown) [Example 22, 4-(3-sec-butoxybenzylidene)-N-pyridazin-3-ylpiperidine-1-carboxamide] | 1260 M⁻¹ s⁻¹
15 | CCC(C)Oc1cccc(C=C2CCN(C(=O)Nc3cccnc3)CC2)c1 (stereo not shown) [Example 23, 4-(3-sec-butoxybenzylidene)-N-pyridin-3-ylpiperidine-1-carboxamide] | 555 M⁻¹ s⁻¹
16 | CCC(C)Oc1cccc(C=C2CCN(C(=O)Nc3cccnc3)CC2)c1 (stereo not shown) [Example 24, 4-(3-sec-butoxybenzylidene)-N-pyridin-3-ylpiperidine-1-carboxamide] | 758 M⁻¹ s⁻¹
17 | C=CC(C)Oc1cccc(C=C2CCN(C(=O)Nc3cccnc3)CC2)c1 (stereo not shown) [Example 25, 4-{3-[(1-methylprop-2-en-1-yl)oxy]benzylidene}-N-pyridin-3-ylpiperidine-1-carboxamide] | 939 M⁻¹ s⁻¹

Second part, the molecule after the results:

Row | hFAAH KInact/K | Molecule
18 | 2250 M⁻¹ s⁻¹ | O=C(Nc1cccnn1)N1CCC(=Cc2cccc(OC(F)(F)F)c2)CC1 [Example 5, N-pyridazin-3-yl-4-[3-(trifluoromethoxy)benzylidene]piperidine-1-carboxamide]
19 | 1480 M⁻¹ s⁻¹ | COc1cccc(C=C2CCN(C(=O)Nc3cccnn3)CC2)c1 [Example 6, 4-(3-methoxybenzylidene)-N-pyridazin-3-ylpiperidine-1-carboxamide]
20 | 1220 M⁻¹ s⁻¹ | O=C(Nc1cccnc1)N1CCC(=Cc2cccc(OC3CCCCC3)c2)CC1 [Example 7, 4-[3-(cyclohexyloxy)benzylidene]-N-pyridin-3-ylpiperidine-1-carboxamide]
21 | 324 M⁻¹ s⁻¹ | O=C(Nc1cccnc1)N1CCC(=Cc2cccc(OC3CCC3)c2)CC1 [Example 8, 4-[3-(cyclobutyloxy)benzylidene]-N-pyridin-3-ylpiperidine-1-carboxamide]
22 | 531 M⁻¹ s⁻¹ | O=C(Nc1cccnn1)N1CCC(=Cc2cccc(OC3CCC3)c2)CC1 [Example 9, 4-[3-(cyclobutyloxy)benzylidene]-N-pyridazin-3-ylpiperidine-1-carboxamide]
23 | 3300 M⁻¹ s⁻¹ | O=C(Nc1cccnn1)N1CCC(=Cc2cccc(OC3CCCCC3)c2)CC1 [Example 10, 4-[3-(cyclohexyloxy)benzylidene]-N-pyridazin-3-ylpiperidine-1-carboxamide]
24 | 1900 M⁻¹ s⁻¹ | O=C(Nc1cccnc1)N1CCC(=Cc2cccc(OC3CCCC3)c2)CC1 [Example 11, 4-[3-(cyclopentyloxy)benzylidene]-N-pyridin-3-ylpiperidine-1-carboxamide]
25 | 907 M⁻¹ s⁻¹ | O=C(Nc1cccnc1)N1CCC(=Cc2cccc(OC3CCCOC3)c2)CC1 (stereo not shown) [Example 12, N-pyridin-3-yl-4-[3-(tetrahydro-2H-pyran-3-yloxy)benzylidene]piperidine-1-carboxamide]
26 | 2570 M⁻¹ s⁻¹ | O=C(Nc1cccnn1)N1CCC(=Cc2cccc(OC3CCCC3)c2)CC1 [Example 13, 4-[3-(cyclopentyloxy)benzylidene]-N-pyridazin-3-ylpiperidine-1-carboxamide]
27 | 2190 M⁻¹ s⁻¹ | O=C(Nc1cccnn1)N1CCC(=Cc2cccc(OC3CCCCCC3)c2)CC1 [Example 16, 4-[3-(cycloheptyloxy)benzylidene]-N-pyridazin-3-ylpiperidine-1-carboxamide]
28 | 371 M⁻¹ s⁻¹ | O=C(Nc1cccnn1)N1CCC(=Cc2cccc(OC3CCOC3)c2)CC1 (stereo not shown) [Example 17, N-pyridazin-3-yl-4-[3-(tetrahydrofuran-3-yloxy)benzylidene]piperidine-1-carboxamide]
29 | 783 M⁻¹ s⁻¹ | O=C(Nc1cccnn1)N1CCC(=Cc2cccc(OC3CCCOC3)c2)CC1 (stereo not shown) [Example 19, N-pyridazin-3-yl-4-[3-(tetrahydro-2H-pyran-3-yloxy)benzylidene]piperidine-1-carboxamide]
30 | 451 M⁻¹ s⁻¹ | O=C(Nc1cccnc1)N1CCC(=Cc2cccc(OC3CCOC3)c2)CC1 (stereo not shown) [Example 20, N-pyridin-3-yl-4-[3-(tetrahydrofuran-3-yloxy)benzylidene]piperidine-1-carboxamide]
31 | <10.0 M⁻¹ s⁻¹ | C=CC(C)Oc1cccc(C=C2CCN(C(=O)Nc3cccnn3)CC2)c1 (stereo not shown) [Example 26, 4-{3-[(1-methylprop-2-en-1-yl)oxy]benzylidene}-N-pyridazin-3-ylpiperidine-1-carboxamide]
32 | 1030 M⁻¹ s⁻¹ | CCC(CC)Oc1cccc(C=C2CCN(C(=O)Nc3cccnn3)CC2)c1 [Example 27, 4-[3-(1-ethylpropoxy)benzylidene]-N-pyridazin-3-ylpiperidine-1-carboxamide]
33 | 303 M⁻¹ s⁻¹ | CCC(CC)Oc1cccc(C=C2CCN(C(=O)Nc3cccnn3)CC2)c1 [Example 28, 4-[3-(1-ethylpropoxy)benzylidene]-N-pyridazin-3-ylpiperidine-1-carboxamide]
34 | 1300 M⁻¹ s⁻¹ | O=C(Nc1cccnc1)N1CCC(=Cc2cccc(OC3CC3)c2)CC1 [Example 29, 4-[3-(cyclopropyloxy)benzylidene]-N-pyridin-3-ylpiperidine-1-carboxamide]
